Patent publication US20250249110A1, “ANTIMICROBIAL PEPTIDE DERIVATIVE AND USE THEREOF” (SICHUAN UNIVERSITY, priority 2016, published 2025)
Where a SMILES comes first, the peptide text is derived from it. The star is where a group is joined. Succinyl(4-O-cholesteryl) = CC(C)CCC[C@@H](C)[C@H]1CC[C@H]2[C@@H]3CC=C4C[C@@H](OC(=O)CCC(=O)*)CC[C@]4(C)[C@H]3CC[C@]12C

Tests used:
[1] = test system: C26 mouse colon cancer peritoneal metastasis; experiment: C26 mouse colon cancer peritoneal metastasis model; format: in vivo
Description: In order to further characterize the application potential of DP7-C micelles in tumor therapy, we established a C26 mouse colon cancer peritoneal metastasis model and used DP7-C to transmit anti-VEGF siRNA therapeutic genes for therapeutic research. • (1) Establishment of abdominal metastasis model: on day 0, female BALB/c mice aged 6-8 weeks are intraperitoneally injected with 0.1 ml of cell suspension (containing about 1×10^5 C26 cells). • (2) On day 3, mice are randomly divided into 4 groups, 8 mice for each group, and are labeled. • (3) Four groups of mice are intraperitoneally injected with 10 doses of normal saline (blank control group), blank DP7-C micelle (17.5 μg), DP7-C/no-sense control siRNA (Scramble siRNA) complex (17.5 μg/3.5 μg) or DP7-C/VEGF siRNA complex (17.5 μg/3.5 μg) respectively. • (4) On day 20, when the mice in the control group are already very weak, all the mice are killed by cervical dislocation; the tumor tissues in the abdominal cavity as well as the heart, liver, spleen, lung and kidney tissues are immediately collected, weighed and analyzed. The ascites of each group of mice is also collected and measured, and CD31 immunohistochemical staining is performed on tumor tissues of each experimental group. The collected heart, liver, spleen, lung and kidney tissues are analyzed by HE staining.

red blood cells = experiment: Hemolysis test in vitro; format: cell-based, human (healthy volunteers)
Description: In the hemolysis test, DP7 and DP7-C at the same concentration were detected for the hemolysis of red blood cells. • 1. Take the blood of healthy volunteers and put into an anticoagulant tube and gently mix. • 2. Take out the anticoagulant, add isometric physiological saline, mix slowly and evenly, centrifuge at 400×g for 10 min, and discard the supernatant. • 3. Slowly mix the red blood cells and wash with PBS, centrifuge at 400×g for 10 min, discard the supernatant, and wash the cell precipitate with PBS for three times. • 4. Dilute with PBS to obtain 20% (v/v) red blood cell solution, which can be used immediately or stored at 4° C. for about 2 weeks (without hemolysis). • 5. Dilute the drug into a series of concentration gradients with PBS, add 100 μL of drug into a 96-well plate, take 100 μL of 2% Twain 20 as the positive control, add 100 μL of PBS to the negative control. Repeat the process 3 times for each concentration of drug. • 6. Dilute 20% (v/v) of red blood cell solution with PBS according to the volume ratio of 1:20, mix evenly and add to a 96-well plate, with the drug concentration of 100, 200, 400, 600, 800, 1000, 1200, 1600 μg/mL respectively, and incubate at 37° C. for 1 h. • 7. Incubate the mixture of drugs and red blood cells, centrifuge at 900×g for 10 min, add 160 μL of the supernatant to a new 96-well plate, and read the absorbance value at OD 450 nm. • 8. According to the absorbance value of A450, calculate the percentage of hemolysis corresponding to each concentration of drugs.
The calculation formula of the percentage of hemolysis is: […]

[2] = test system: macrophages, neutrophils and monocytes in the abdominal cavity; experiment: Detection of activated immune-related cells in abdominal cavity (flow cytometry); format: in vivo, mouse; conditions: 24 h after 200 μL of 1 mg/mL i.p.
Description: Grouping: The mice are randomly divided into two groups (NS group and DP7-C group) with 5 mice in each group.
Each mouse in the DP7-C group is given 200 μL of 1 mg/mL DP7-C, while each mouse in the NS group is injected with 200 μL of normal saline. The mice of both groups are killed 24 h later. Each mouse is intraperitoneally injected with 5 mL of normal saline. By gently massaging the abdomen, the ascites in the abdominal cavity is aspirated to calculate the cell concentration and total cell count there. The lymphocyte typing of the ascites is detected by a flow cytometry, the percentage of macrophages, neutrophils and inflammatory monocytes in total cells is analyzed, and the number of macrophages, neutrophils and inflammatory monocytes is calculated according to the results of flow cytometry and the total number of cells in ascites.

[3] = test system: C26 subcutaneously implanted tumor; experiment: Subcutaneously implanted tumor model of C26 mouse colon cancer; format: in vivo
Description: In order to further characterize the application potential of DP7-C micelles in tumor therapy, we established a subcutaneously implanted tumor model of C26 mouse colon cancer and used DP7-C to transmit anti-VEGF siRNA therapeutic genes for therapeutic research. • (1) On day 0, female BALB/c mice aged 6-8 weeks are subcutaneously inoculated with 0.1 mL of cell suspension (containing about 1.5×10^6 C26 cells). • (2) On day 8, when the tumor is palpable, mice are randomly divided into 4 groups, 8 mice for each group, and are labeled. • (3) Four groups of mice are intratumorally injected with 10 doses of normal saline (blank control group), blank DP7-C micelle (25 μg), DP7-C/no-sense control siRNA complex (25 μg/5 μg) or DP7-C/VEGF siRNA complex (25 μg/5 μg) respectively. • (4) On day 20, when the mice in the control group are already very weak, all the mice are killed by cervical dislocation; the tumor tissues in the abdominal cavity as well as the heart, liver, spleen, lung and kidney tissues are immediately collected, weighed and analyzed. The ascites of each group of mice is also collected and measured, and CD31 immunohistochemical staining is performed on tumor tissues of each experimental group. The collected heart, liver, spleen, lung and kidney tissues are analyzed by HE staining.

[4] = test system: 293T human embryonic kidney cell line; format: cell-based; conditions: 293T cells, 24 h, CCK-8
Description: Cytotoxicity of cations is one of the important factors that restrict the application of siRNA transfection. The toxicity of DP7-C micelles to 293T human embryonic kidney cell line, a normal cell, is detected through cell survival experiments. 293T cells are laid in a 96-well plate at a density of 3×10^3 cells per well, and 100 μL of DMEM/20% FBS medium is added to each well and incubated for 24 h. In the experiment, three groups are set up, i.e. DP7-C, PEI25K and Lipofectamin2000; and each group had 10 concentration gradients of 0, 12.5, 18.75, 25, 37, 50, 75, 100, 150 and 200 μg/mL respectively. The survival of the cells was detected by the CCK-8 method. After 24 h of dosing, 10 μL of CCK-8 solution is added to each well and incubated at 37° C. for 2 h. The absorption value of each well is detected at the wavelength of 630 nm and 450 nm by a microplate reader. The standard curve is drawn and IC50 is calculated, and the average value of 6 groups of parallel experiments is taken as the final result.

[5] = heart, liver, spleen, lung, kidney
[6] = intraperitoneal injection, 10 doses, day 20

Structure (SMILES): CC[C@H](C)[C@H](NC(=O)[C@H](CCCNC(=N)N)NC(=O)[C@H](Cc1c[nH]c2ccccc12)NC(=O)[C@H](CCC(N)=O)NC(=O)[C@@H](NC(=O)CCC(=O)O[C@H]1CC[C@@]2(C)C(=CC[C@H]3[C@@H]4CC[C@H]([C@H](C)CCCC(C)C)[C@@]4(C)CC[C@@H]32)C1)C(C)C)C(=O)N[C@@H](CCCNC(=N)N)C(=O)N[C@H](C(=O)N[C@@H](C)C(=O)N[C@H](C(=O)N[C@H](C(=O)N[C@@H](CCCNC(=N)N)C(=O)N[C@@H](CCCCN)C(N)=O)[C@@H](C)CC)C(C)C)C(C)C [DP7-C, Chol-suc-VQWRIRVAVIRK-NH2] ({Succinyl(4-O-cholesteryl)}-VQWRIRVAVIRK-NH2)
- HE staining of major organ tissues [1, 5]: no significant pathological changes
- average tumor weight [1, 6]: 7.94 ± 0.53 g
- volume of ascites (printed as average tumor weight) [1, 6]: 1.17 ± 0.51 mL
- appearance of hemolysis test (red blood cells; FIG. 5B): red blood cells are not lysed
- degree of lysis to red blood cells (red blood cells; drug concentration more than 0.8 mg/mL, 37° C. 1 h): much less than DP7
- total number of cells in the abdominal cavity [2]: increased significantly
- percentage of monocytes ([2]; abdominal cavity, NS 2.7%): 32.8%
- percentage of macrophages ([2]; abdominal cavity, NS 38.8%): 50.8%
- HE staining of major organ tissues [3, 5]: no significant pathological changes
- average tumor weight (unit mm^3) ([3]; intratumoral injection, 10 doses): 357.64±30.56 mm^3
- IC50 [4]: exceeding 200 μg/mL
